From patent US8673942B2, “Fused ring compounds and use thereof” (Takeda Pharmaceutical Company Limited, priority 2008, dated 2014) come the findings set out here.

The target in series [1] is T1, human liver GK (GST-hLGK1) (Homo sapiens, UniProt P35557).
T1 construct: with a BamHI site added to immediately before the initiation codon; made in house; host or cells: Escherichia coli BL21 (Stratagene), plasmid pGEX6P-2/hLGK1
T1 sequence (P35557 1-464 isoform P35557-3): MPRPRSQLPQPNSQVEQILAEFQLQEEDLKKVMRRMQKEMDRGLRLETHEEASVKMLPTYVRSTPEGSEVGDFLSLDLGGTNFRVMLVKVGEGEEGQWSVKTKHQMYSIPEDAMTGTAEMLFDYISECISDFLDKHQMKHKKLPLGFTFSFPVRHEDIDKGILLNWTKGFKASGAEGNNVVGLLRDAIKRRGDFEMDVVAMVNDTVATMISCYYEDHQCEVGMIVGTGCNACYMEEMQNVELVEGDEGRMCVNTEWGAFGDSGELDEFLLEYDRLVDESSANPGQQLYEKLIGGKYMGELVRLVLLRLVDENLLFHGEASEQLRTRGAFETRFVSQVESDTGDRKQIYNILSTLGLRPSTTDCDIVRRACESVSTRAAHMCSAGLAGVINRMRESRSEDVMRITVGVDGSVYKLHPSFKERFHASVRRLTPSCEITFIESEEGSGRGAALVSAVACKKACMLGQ
The experiment in a line: Measurement of GK activation value. It counts as biochemical. The following applies: GST-hLGK1 6 μg/mL, 5 mmol/L D-glucose, 50 μmol/L Mant-ATP, 60 min at 37° C.; concentration at midpoint between maximum activity value and control activity value. The method, then: GK enzyme reactions were performed in 50 mmol/L HEPES pH 7.4, 200 mmol/L KCl, 5 mmol/L MgCl2, 2 mmol/L DTT, containing 50 μmol/L 2′-(or -3′)-O—(N-methylanthraniloyl)adenosine 5′-triphosphate (Mant-ATP) (Jena Bioscience GmbH), 5 mmol/L D-glucose, 5% DMSO and 6 μg/mL GST-hLGK1 obtained in Reference Example 2A in a total volume 50 μL. The reactions were performed in 384 well black plates (Nalge Nunc International K.K.). Prior to the reaction, the enzyme and test compound were incubated for 10 min at 37° C., and 25 mM D-glucose solution (10 μL) was added to start the reaction.
After the incubation for 60 min at 37° C., the reaction was quenched by adding 25 μL of a quenching solution (containing 200 mM HEPES (pH 7.4), 20 mM MgCl2, 200 mM EDTA, 0.03% Triton-X 100, 0.3% Coating 3 reagent (Caliper Life Sciences, Inc.)).
Mant-ATP (substrate, 2′- (or -3′)-O—(N-methylanthraniloyl) adenosine 5′-triphosphate) and Mant-ADP (reaction resultant product) were separated from each well after the reaction by a microchip type capillary electrophoresis apparatus 250 HTS (Caliper Life Sciences, Inc.). The reaction rate [(reaction resultant product peak height)/(reaction resultant product peak height+substrate peak height)×100(%)] was calculated from the ratio of the substrate peak height and reaction resultant product peak height obtained by fluorescence detection (excitation wavelength 355 nm, measurement wavelength 460 nm) and used as the index of GK activity.
As a control group, the reaction rate was calculated in the same manner as above without the test compounds.
The percentage obtained by dividing the reaction rate of the well added with each concentration of the test compound (test compound addition group) by the reaction rate of the control group was taken as the GK activity value, and the concentration of the test compound at the midpoint between the maximum activity value of the test compound addition group and the control group activity value is shown as EC50 value.

For orientation: melting point means the temperature of the solid-liquid transition. In general, EC50 refers to the concentration that produces a half-maximal response. A higher EC50 goes with a less potent agent.

As for `COc1cc(Oc2ccc(S(C)(=O)=O)nc2)cc2cc(C3=NCC(CC(=O)NC[C@H](C)O)S3)[nH]c12` (stereo partly drawn) [Example 80, N-[(2S)-2-Hydroxypropyl]-2-[2-(7-methoxy-5-{[6-(methylsulfonyl)pyridin-3-yl]oxy}-1H-indol-2-yl)-4,5-dihydro-1,3-thiazol-5-yl]acetamide], the melting point is 185 to 186 °C. In series [1], this compound showed an EC50 of 37 nM.
`COCCNC(=O)CC1CN=C(c2cc3cc(Oc4ccc(S(C)(=O)=O)nc4)cc(OC)c3[nH]2)S1` (centres unmarked) [Example 78, N-(2-Methoxyethyl)-2-[2-(7-methoxy-5-{[6-(methylsulfonyl)pyridin-3-yl]oxy}-1H-indol-2-yl)-4,5-dihydro-1,3-thiazol-5-yl]acetamide] returned a melting point of 175 to 176 °C. The same compound displayed an EC50 in series [1] of 37 nM.
For the compound `COc1cc(Oc2ccc(S(C)(=O)=O)nc2)cc2cc(C3=NCC(CC(=O)N4CCOCC4)S3)[nH]c12` (centres unmarked) [Example 82, 7-Methoxy-5-{[6-(methylsulfonyl)pyridin-3-yl]oxy}-2-{5-[2-(morpholin-4-yl)-2-oxoethyl]-4,5-dihydro-1,3-thiazol-2-yl}-1H-indole], the melting point is 148 to 149 °C. In series [1], this compound showed a 50% effective concentration (EC50) of 42 nM.
In the same order, the values of `CC(CO)Oc1cc(Oc2ccc(S(C)(=O)=O)cc2)cc2cc(C3=NCC(CC(N)=O)S3)[nH]c12` (centres unmarked) [Example 17, 2-(2-{7-(2-Hydroxy-1-methylethoxy)-5-[4-(methylsulfonyl)phenoxy]-1H-indol-2-yl}-4,5-dihydro-1,3-thiazol-5-yl)acetamide] are 137 to 142 °C and 48 nM.
With `CC(C)Oc1cc(Oc2ccc(S(C)(=O)=O)cn2)cc2cc(C3=NCC(CC(C)(C)O)S3)[nH]c12` (single isomer, unassigned) [Example 65, 2-Methyl-1-{2-[7-(1-methylethoxy)-5-{[5-(methylsulfonyl)pyridin-2-yl]oxy}-1H-indol-2-yl]-4,5-dihydro-1,3-thiazol-5-yl}propan-2-ol], a half-maximal response in series [1] (EC50) required 59 nM.
Same read-out and setting: the result for `COCC(C)Oc1cc(Oc2ccc(S(C)(=O)=O)cc2)cc2cc(C3=NCC(CCO)S3)[nH]c12` (single isomer, unassigned) [Example 57, 2-(2-{7-(2-Methoxy-1-methylethoxy)-5-[4-(methylsulfonyl)phenoxy]-1H-indol-2-yl}-4,5-dihydro-1,3-thiazol-5-yl)ethanol] reads 17 nM.
Compound `CS(=O)(=O)c1ccc(Oc2cc(OCC3CCOCC3)c3[nH]c(C4=NCC(CCO)S4)cc3c2)cc1` (centres unmarked) [Example 19, 2-(2-{5-[4-(Methylsulfonyl)phenoxy]-7-(tetrahydro-2H-pyran-4-ylmethoxy)-1H-indol-2-yl}-4,5-dihydro-1,3-thiazol-5-yl)ethanol] came in with a melting point of 104 to 105 °C. In series [1], this compound came in with an EC50 of 44 nM.
With `COc1cc(Oc2ccc(S(C)(=O)=O)cc2)cc2cc(C3=NCC(CC(=O)O)S3)[nH]c12` (centres unmarked) [Example 102, (2-{7-Methoxy-5-[4-(methylsulfonyl)phenoxy]-1H-indol-2-yl}-4,5-dihydro-1,3-thiazol-5-yl)acetic acid], the melting point lay within 144 to 145 °C.
`COCC(C)Oc1cc(Oc2ccc(S(C)(=O)=O)cc2)cc2cc(C3=NCC(CCO)S3)[nH]c12` (single isomer, unassigned) [Example 58, 2-(2-{7-(2-Methoxy-1-methylethoxy)-5-[4-(methylsulfonyl)phenoxy]-1H-indol-2-yl}-4,5-dihydro-1,3-thiazol-5-yl)ethanol] registered a concentration for a half-maximal effect (EC50) in series [1] of 15 nM.
Consider `CNC(=O)CC1CN=C(c2cc3cc(Oc4ccc(S(C)(=O)=O)nc4)cc(OC)c3[nH]2)S1` (centres unmarked) [Example 30, 2-[2-(7-Methoxy-5-{[6-(methylsulfonyl)pyridin-3-yl]oxy}-1H-indol-2-yl)-4,5-dihydro-1,3-thiazol-5-yl]-N-Methylacetamide], for which the melting point was in the range of 201 to 202 °C.
On the same count and under the same terms, the result for `CS(=O)(=O)c1ccc(Oc2cc(OCc3ccccc3)c3[nH]c(-c4nnc(CO)s4)cc3c2)cc1` [Example 21, (5-{7-(Benzyloxy)-5-[4-(methylsulfonyl)phenoxy]-1H-indol-2-yl}-1,3,4-thiadiazol-2-yl)methanol] reads 159 to 160 °C; that for `CC(C)Oc1cc(Oc2ccc(S(C)(=O)=O)cn2)cc2cc(C3=NCC(CC(C)(C)O)S3)[nH]c12` (single isomer, unassigned) [Example 64, 2-Methyl-1-{2-[7-(1-methylethoxy)-5-{[5-(methylsulfonyl)pyridin-2-yl]oxy}-1H-indol-2-yl]-4,5-dihydro-1,3-thiazol-5-yl}propan-2-ol], 145 to 146 °C; that for `CNC(=O)CC1CN=C(c2cc3cc(Oc4ccc(S(C)(=O)=O)nc4)cc(OC(C)COC)c3[nH]2)S1` (centres unmarked) [Example 87, 2-{2-[7-(2-Methoxy-1-methylethoxy)-5-{[6-(methylsulfonyl)pyridin-3-yl]oxy}-1H-indol-2-yl]-4,5-dihydro-1,3-thiazol-5-yl}-N-methylacetamide], 107 to 109 °C.
As to `CCOc1cc(Oc2ccc(S(C)(=O)=O)nc2)cc2cc(C3=NCC(CC(=O)NC)S3)[nH]c12` (single isomer, unassigned) [Example 98, 2-[2-(7-Ethoxy-5-{[6-(methylsulfonyl)pyridin-3-yl]oxy}-1H-indol-2-yl)-4,5-dihydro-1,3-thiazol-5-yl]-N-methylacetamide], in series [1], the EC50 is 20 nM. In other words, the double-digit nanomolar range.
With `CS(=O)(=O)c1ccc(Oc2cc(OCc3cccc(Cl)n3)c3[nH]c(C4=NCC(CCO)S4)cc3c2)cc1` (centres unmarked) [Example 6, 2-(2-{7-[(6-Chloropyridin-2-yl)methoxy]-5-[4-(methylsulfonyl)phenoxy]-1H-indol-2-yl}-4,5-dihydro-1,3-thiazol-5-yl)ethanol], the melting point lay within 93 to 94 °C.
The same measure, in the same setting: the value for `COCC(COC)Oc1cc(Oc2ccc(S(C)(=O)=O)nc2)cc2cc(C3=NCC(CCO)S3)[nH]c12` (centres unmarked) [Example 37, 2-[2-(7-[2-Methoxy-1-(methoxymethyl)ethoxy]-5-{[6-(methylsulfonyl)pyridin-3-yl]oxy}-1H-indol-2-yl)-4,5-dihydro-1,3-thiazol-5-yl]ethanol] was 69 to 71 °C; that for `CCOc1cc(Oc2ccc(S(C)(=O)=O)nc2)cc2cc(C3=NCC(CC(=O)O)S3)[nH]c12` (centres unmarked) [Example 96, [2-(7-Ethoxy-5-{[6-(methylsulfonyl)pyridin-3-yl]oxy}-1H-indol-2-yl)-4,5-dihydro-1,3-thiazol-5-yl]acetic acid] was 208 to 210 °C; that for `COCC(C)Oc1cc(Oc2ccc(S(C)(=O)=O)nc2)cc2cc(C3=NCC(CCO)S3)[nH]c12` (centres unmarked) [Example 84, 2-{2-[7-(2-Methoxy-1-methylethoxy)-5-{[6-(methylsulfonyl)pyridin-3-yl]oxy}-1H-indol-2-yl]-4,5-dihydro-1,3-thiazol-5-yl}ethanol] was 138 to 139 °C.
The same measure, in the same setting: the value for `COc1cc(Oc2ccc(S(C)(=O)=O)nc2)cc2cc(C3=NCC(CC(N)=O)S3)[nH]c12` (centres unmarked) [Example 29, 2-[2-(7-Methoxy-5-{[6-(methylsulfonyl)pyridin-3-yl]oxy}-1H-indol-2-yl)-4,5-dihydro-1,3-thiazol-5-yl]acetamide] was 225 to 227 °C.
On the same count and under the same terms, the result for `CNC(=O)CC1CN=C(c2cc3cc(Oc4ccc(S(C)(=O)=O)cn4)cc(OC(C)C)c3[nH]2)S1` (centres unmarked) [Example 68, N-Methyl-2-{2-[7-(1-methylethoxy)-5-{[5-(methylsulfonyl)pyridin-2-yl]oxy}-1H-indol-2-yl]-4,5-dihydro-1,3-thiazol-5-yl}acetamide] reads 190 to 192 °C; that for `CCOc1cc(Oc2ccc(S(C)(=O)=O)nc2)cc2cc(C3=NCC(CC(=O)NC)S3)[nH]c12` (centres unmarked) [Example 97, 2-[2-(7-Ethoxy-5-{[6-(methylsulfonyl)pyridin-3-yl]oxy}-1H-indol-2-yl)-4,5-dihydro-1,3-thiazol-5-yl]-N-methylacetamide], 233 to 235 °C.
